Tests used:
Assay type in all cases: binding
panel of 442 kinases [1] = target: T1, panel of 442 kinases (Homo sapiens, UniProt P07947); settings: kinase YES; compound concentration 10 µM
T1 construct: purchased KINOMEscan
Description: (§1) We assessed the selectivity of members of this scaffold using the KINOMEscan methodology across a near comprehensive panel of 442 kinases [[18,27]].

panel of 442 kinases [2] = target: T2, panel of 442 kinases (Homo sapiens, UniProt P50750); settings: Compound Concentration 10 µM
T2 construct: purchased KINOMEscan
T2 sequence (P50750 whole entry): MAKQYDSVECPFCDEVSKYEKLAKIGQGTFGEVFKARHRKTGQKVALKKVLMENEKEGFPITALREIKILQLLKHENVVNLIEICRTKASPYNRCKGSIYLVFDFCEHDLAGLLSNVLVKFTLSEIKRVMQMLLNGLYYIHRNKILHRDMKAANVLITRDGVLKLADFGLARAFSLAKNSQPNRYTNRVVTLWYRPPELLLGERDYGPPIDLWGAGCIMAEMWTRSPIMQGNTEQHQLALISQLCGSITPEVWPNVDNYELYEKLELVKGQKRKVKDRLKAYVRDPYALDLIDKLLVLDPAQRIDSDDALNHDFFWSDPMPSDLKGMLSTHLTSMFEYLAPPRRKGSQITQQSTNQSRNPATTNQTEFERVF
Description: as §1

panel of 442 kinases [3] = target: T3, panel of 442 kinases (Homo sapiens, UniProt P11309); settings: Compound Concentration 10 µM
T3 construct: purchased KINOMEscan
T3 sequence (P11309 whole entry): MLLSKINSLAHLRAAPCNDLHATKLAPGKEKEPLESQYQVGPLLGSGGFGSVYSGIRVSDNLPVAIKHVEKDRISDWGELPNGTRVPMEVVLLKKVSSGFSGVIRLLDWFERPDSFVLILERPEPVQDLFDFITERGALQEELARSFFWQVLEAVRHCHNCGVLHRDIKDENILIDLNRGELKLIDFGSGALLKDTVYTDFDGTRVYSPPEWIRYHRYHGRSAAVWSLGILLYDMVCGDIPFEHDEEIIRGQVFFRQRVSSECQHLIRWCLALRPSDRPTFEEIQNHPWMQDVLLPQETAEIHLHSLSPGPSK
Description: as §1

panel of 442 kinases [4] = target: T4, panel of 442 kinases (Homo sapiens, UniProt Q9BYT3); settings: kinase STK33; compound concentration 10 µM
T4 construct: purchased KINOMEscan
T4 sequence (Q9BYT3 whole entry): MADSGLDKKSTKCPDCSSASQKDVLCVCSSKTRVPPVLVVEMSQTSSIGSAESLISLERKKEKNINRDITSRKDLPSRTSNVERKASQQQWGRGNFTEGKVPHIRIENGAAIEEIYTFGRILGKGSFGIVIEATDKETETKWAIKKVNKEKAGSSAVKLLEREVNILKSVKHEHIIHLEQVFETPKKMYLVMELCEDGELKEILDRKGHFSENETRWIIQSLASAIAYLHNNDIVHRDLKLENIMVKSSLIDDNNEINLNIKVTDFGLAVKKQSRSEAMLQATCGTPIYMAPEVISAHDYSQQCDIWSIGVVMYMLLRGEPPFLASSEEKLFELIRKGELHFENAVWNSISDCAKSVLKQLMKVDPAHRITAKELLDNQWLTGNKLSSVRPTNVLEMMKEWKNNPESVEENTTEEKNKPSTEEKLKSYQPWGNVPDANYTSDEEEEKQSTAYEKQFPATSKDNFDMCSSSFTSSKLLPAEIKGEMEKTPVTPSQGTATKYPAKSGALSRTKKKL
Description: as §1

T1 sequence (P07947 whole entry): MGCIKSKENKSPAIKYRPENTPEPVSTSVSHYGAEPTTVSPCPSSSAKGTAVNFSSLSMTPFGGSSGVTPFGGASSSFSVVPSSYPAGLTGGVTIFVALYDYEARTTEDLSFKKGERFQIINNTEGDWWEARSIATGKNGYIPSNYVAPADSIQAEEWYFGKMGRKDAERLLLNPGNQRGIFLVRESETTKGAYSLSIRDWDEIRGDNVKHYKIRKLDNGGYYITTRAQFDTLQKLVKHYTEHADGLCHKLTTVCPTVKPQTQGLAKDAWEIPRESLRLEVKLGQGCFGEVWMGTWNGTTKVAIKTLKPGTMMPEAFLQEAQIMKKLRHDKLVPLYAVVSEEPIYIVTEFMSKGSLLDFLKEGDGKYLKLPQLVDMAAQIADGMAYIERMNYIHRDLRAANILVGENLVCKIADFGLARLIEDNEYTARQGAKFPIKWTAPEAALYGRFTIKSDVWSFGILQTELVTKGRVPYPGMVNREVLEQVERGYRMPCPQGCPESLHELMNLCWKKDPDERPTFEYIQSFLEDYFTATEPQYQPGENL

| SMILES | % Ctrl, YES (panel of 442 kinases [1]) | KINOMEscan: CDK9 (panel of 442 kinases [2]) | KINOMEscan: PIM1 (panel of 442 kinases [3]) | % Ctrl, STK33 (panel of 442 kinases [4]) |
| --- | --- | --- | --- | --- |
| COc1cc(C(=O)N2CCC(N3CCN(C)CC3)CC2)ccc1Nc1ncc2c(n1)N(C)c1ccccc1C(=O)N2C [15 (LRRK2-IN-1)] | 100 % Ctrl | 100 | 100 | 10 % Ctrl |
| COc1cc(C(=O)N2CCC(N3CCN(C)CC3)CC2)ccc1Nc1ncc2c(n1)N1CCc3cccc(c31)C(=O)N2C [Compound 24] | 100 % Ctrl | 96 |  |  |
| COc1cc(C(=O)N2CCC(N3CCN(C)CC3)CC2)ccc1Nc1ncc2c(n1)N(C1CCCC1)c1ccccc1C(=O)N2C [Compound 25, 11-cyclopentyl-2-((2-methoxy-4-(4-(4-methylpiperazin-1-yl)piperidine-1-carbonyl)phenyl)amino)-5-methyl-5H-benzo[e]pyrimido[5,4-b][1,4]diazepin-6(11H)-one] | 89 % Ctrl | 98 | 97 | 81 % Ctrl |
| CCOc1cc(C(=O)N2CCC(N3CCN(C)CC3)CC2)ccc1Nc1ncc2c(n1)N(C1CCCC1)c1ccccc1C(=O)N2C [Compound 26] | 100 % Ctrl | 100 | 100 | 100 % Ctrl |
